Assay results as given in patent US8697658B2, “Glycoside compounds” (National Health Research Institutes, priority 2011, dated 2014).

Experiments:
[1] = system: Streptozotocin-induced diabetes rats; test: In vivo anti-hyperglycemia assay; parameters: species or system rat; conditions: streptozotocin-induced diabetic rats, single oral dose, blood glucose at 0-5 hr, various dosages
Procedure: Streptozotocin-induced diabetes rats were used for assessment of blood glucose lowering effect. Adult male Sprague Dawley rats were obtained from BioLasco, Ilan, Taiwan. The rats received an intraperitoneal injection of streptozotocin (Sigma, Cat. No. S0130, St. Louis, Mo., USA) at a concentration of 65 mg/kg every other day. The streptozotocin solution was freshly prepared in 0.01 M citrate buffer. Blood samples were collected via tail vein with a 25 G needle once a week and were tested using a blood glucometer (ACCU-CHEK® from Roche, Basel, Schweiz) for glucose level. A glucose level of higher than 450 mg/dL indicates streptozotocin-induced diabetes. The diabetic rats were divided into 3-6 groups and were orally administered with a single dose of the tested compounds, dapagliflozin (reference compound), or vehicle. Blood samples were collected via tail vein at 0 (pre-dose), 0.5, 1, 2, 3, 4, and 5 hr after the oral administration and were measured for blood glucose levels with the glucometer. A P value of less than 0.05 was considered statistically significant.

Male Sprague-Dawley rats = test: In vivo urine glucose excretion assay; parameters: species or system rat; conditions: single oral dose 0.1, 1, 10, and 50 mg/kg, then 50% glucose solution 2 g/kg orally, 24-hour urine collection
Procedure: Male Sprague-Dawley rats were used for glucosuria assessment. Male Sprague-Dawley rats of 8-10 weeks old were obtained from BioLasco, Ilan, Taiwan. The rats to be tested were fasted overnight and divided into 6 weight-matched groups. The rats were mildly anesthetized with a mixed gas of 30% O2 and 70% CO2 by inhalation and were orally gavaged with a single dose of the tested compounds (0.1, 1, 10, and 50 mg/kg), dapagliflozin (reference compound, 1 mg/kg), or vehicle. Each of the tested rats was subsequently dosed orally with 50% glucose solution (2 g/kg). The rats were returned to metabolism cages (ISHIHALA, Tokyo, Japan) for 24-hour urine collection and were re-fed at 1 h after the glucose challenge. Volume of the urine was measured and recorded. The urine samples were measured for glucose levels by a DRI-CHEM 3500 analyzer (FUJI, Tokyo, Japan). A P value of less than 0.05 was considered statistically significant.

Structure (SMILES) | anti-hyperglycemia effect (blood glucose lowering) [1] | effect in increasing urinary glucose excretion (Male Sprague-Dawley rats)
CCOc1ccc(Cc2cc([C@@H]3O[C@H](C=NNC(=S)NC)[C@@H](O)[C@H](O)[C@H]3O)ccc2Cl)cc1 [Compound 87] | strong anti-hyperglycemia effect | strong effect in increasing urinary glucose excretion in a dose-dependent manner
O[C@@H]1[C@@H](O)[C@H](c2cn(Cc3ccc(C4CC4)cc3)c3c(F)cccc23)OC[C@H]1O [Compound 108] | strong anti-hyperglycemia effect | 
CCOc1ccc(Cc2cc([C@@H]3O[C@H](C=NNC(=O)c4ccc(Cl)s4)[C@@H](O)[C@H](O)[C@H]3O)ccc2Cl)cc1 [Compound 95] | strong anti-hyperglycemia effect | strong effect in increasing urinary glucose excretion in a dose-dependent manner
CCOc1ccc(Cc2cc([C@@H]3O[C@H](C=NNC(=O)c4ccccc4)[C@@H](O)[C@H](O)[C@H]3O)ccc2Cl)cc1 [Compound 93] | strong anti-hyperglycemia effect | strong effect in increasing urinary glucose excretion in a dose-dependent manner
CCOc1ccc(Cc2cc([C@@H]3O[C@H](C=NO)[C@@H](O)[C@H](O)[C@H]3O)ccc2Cl)cc1 [Compound 70] | strong anti-hyperglycemia effect | strong effect in increasing urinary glucose excretion in a dose-dependent manner
CCOc1ccc(Cc2cc([C@@H]3O[C@H](C=NOC)[C@@H](O)[C@H](O)[C@H]3O)ccc2Cl)cc1 [Compound 71] |  | strong effect in increasing urinary glucose excretion in a dose-dependent manner
CCOc1ccc(Cc2cc([C@@H]3O[C@H](C=NNC(=O)c4cccs4)[C@@H](O)[C@H](O)[C@H]3O)ccc2Cl)cc1 [Compound 81] |  | strong effect in increasing urinary glucose excretion in a dose-dependent manner
CCOc1ccc(Cc2cc([C@@H]3O[C@H](C=NNCCO)[C@@H](O)[C@H](O)[C@H]3O)ccc2Cl)cc1 [Compound 78] | strong anti-hyperglycemia effect | strong effect in increasing urinary glucose excretion in a dose-dependent manner
CCOc1ccc(Cc2cc([C@@H]3O[C@H](CNOC)[C@@H](O)[C@H](O)[C@H]3O)ccc2Cl)cc1 [Compound 79] |  | strong effect in increasing urinary glucose excretion in a dose-dependent manner
